Experimental data from patent US6087119A, “Method for determining the catalytic activity of factor IXa” (Roche Diagnostics GmbH, priority 1996, dated 2000).
Several values for one entry are separate records, joined by “and”; a condition that tells them apart may be missing. Identical values can stand only once. Like-named read-outs stand apart in the source and are kept apart here.

Experiments:
[1] = target: plasma kallikrein (human) (Homo sapiens, UniProt P03952); settings: 10-20% ethanol
Excerpt: Plasma Kallikrein Test Mixture (Concentration in the Test)
(§1) 42 mmol/l Tris-HCl, pH 7.4
(§2) 1.02 mmol/l MeSO2 -D-HHT-Gly-Arg-pNA
0.0176 U/ml plasma kallikrein (human)
(§3) 0-50% ethanol or ethylene glycol

[2] = target: FXIa (human) (Homo sapiens, UniProt P03951); settings: FXIa 0.0012 μmol/l, MeSO2-D-HHT-Gly-Arg-pNA 1.02 mmol/l, pH 7.4
Chain of FXIa (human) (P03951 388-625 limits assumed): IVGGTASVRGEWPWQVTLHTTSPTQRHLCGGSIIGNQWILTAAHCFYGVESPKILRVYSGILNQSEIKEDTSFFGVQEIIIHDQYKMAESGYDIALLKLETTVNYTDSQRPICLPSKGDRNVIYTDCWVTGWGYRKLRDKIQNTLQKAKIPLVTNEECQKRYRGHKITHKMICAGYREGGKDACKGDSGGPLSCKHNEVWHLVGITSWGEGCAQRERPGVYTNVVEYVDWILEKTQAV
Chain of FXIa (human) (P03951 19-387 partner limits assumed): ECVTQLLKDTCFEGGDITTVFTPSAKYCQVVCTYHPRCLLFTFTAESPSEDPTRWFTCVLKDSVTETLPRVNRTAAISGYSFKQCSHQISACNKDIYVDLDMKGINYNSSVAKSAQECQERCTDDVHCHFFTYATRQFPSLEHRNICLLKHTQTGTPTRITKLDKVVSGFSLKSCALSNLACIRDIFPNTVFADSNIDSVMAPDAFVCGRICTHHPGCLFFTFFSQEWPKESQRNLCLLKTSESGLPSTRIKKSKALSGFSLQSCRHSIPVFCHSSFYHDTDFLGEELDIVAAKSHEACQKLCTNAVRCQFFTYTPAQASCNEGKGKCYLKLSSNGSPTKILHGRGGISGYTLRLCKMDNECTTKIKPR
Excerpt: FXIa Test Mixture (Concentration in the Test)
as §1, §2
0.0012 μmol/l FXIa (human)
as §3

[3] = target: native FIXa (human) (Homo sapiens, UniProt P00740); settings: pH 7.4; for V/V0: MeSO2-D-HHT-Gly-Arg-pNA 1.02 mmol/l, 0.14 μmol/l native FIXa
Chain of native FIXa (human) (P00740 227-461 limits assumed): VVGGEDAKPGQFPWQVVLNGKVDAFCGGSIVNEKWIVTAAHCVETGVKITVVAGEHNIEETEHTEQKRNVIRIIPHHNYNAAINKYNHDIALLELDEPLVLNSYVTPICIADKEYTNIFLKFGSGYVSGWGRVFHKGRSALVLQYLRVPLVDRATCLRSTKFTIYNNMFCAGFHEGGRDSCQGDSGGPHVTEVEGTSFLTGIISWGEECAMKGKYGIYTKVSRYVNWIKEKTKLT
Chain of native FIXa (human) (P00740 47-191 partner limits assumed): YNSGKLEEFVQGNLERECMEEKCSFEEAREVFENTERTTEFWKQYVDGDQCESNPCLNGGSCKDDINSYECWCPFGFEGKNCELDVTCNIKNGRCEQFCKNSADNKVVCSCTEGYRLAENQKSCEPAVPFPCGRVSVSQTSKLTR
Method: The FIXa test was carried out with recombinantly produced native human FIXa as a sample and the peptide substrate MeSO2 -D-HHT-Gly-Arg-pNA (Pefachrom tPA, Pentapharm Ltd., Basel, Switzerland) or other chromogenic/fluorogenic substrates of the R-D-Xxx-Gly-Arg-pNA type (EP-B 0 034 122) in Tris-HCl buffer and the substances to be tested (alcohol, solvents and inhibitors). The reaction was started by adding FIXa.
The test mixture was incubated at room temperature (25° C.) in a microtitre plate and the change in absorbance (ΔA/min) was measured at 405 nm using an ELISA reader. The activity and the kinetic constants were determined from the linear initial slope according to the Michaelis-Menten equation.
as §2
0.14 μmol/l native FIXa (human)
as §3
FIXa Test Mixture (Concentration in the Test)

[4] = target: T1, rFIXa (human) (Homo sapiens, UniProt P00740); experiment: Influence of alcohols and organic solvents on the activity of rFIXa, chromogenic peptide substrates; assay type: biochemical; design: coding for the FIX protease domain from amino acid position 181 to 415; Met (ATG start codon) (N); made in house; settings: for V/V0: pH 7.4
Method: The reaction was started by adding FIXa.
MeSO2 -D-HHT-Gly-Arg-pNA→MeSO2 -D-HHT-Gly-Arg+pNA measurement signal: pNA
0.48 μmol/l rFIXa (human)
0-50% (alcohol or organic solvent)
The ratio V/V0 was calculated to illustrate the stimulation of the catalytic activity of rFIXa.
V0, reaction rate without additives
V, reaction rate in the presence of additives
Test Mixture Chromogenic (Concentration in the Test)
Target sequence in this assay (P00740 227-461 limits assumed): as the sequence (P00740 227-461 limits assumed) above
Target sequence in this assay (P00740 131-226 partner limits assumed): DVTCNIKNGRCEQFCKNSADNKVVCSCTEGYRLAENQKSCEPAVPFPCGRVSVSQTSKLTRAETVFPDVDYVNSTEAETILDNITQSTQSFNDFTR

[5] = target: T1, rFIXa (human); settings: fluorogenic MeSO2-D-CHA-Gly-Arg-AMC 0.51 mmol/l, 0.08 μmol/l rFIXa, pH 7.4
Excerpt: The stimulation of human rFIXa by ethanol and ethylene glycol was examined using the peptide substrates MeSO2 -D-HHT-Gly-Arg-pNA (Pefachrom tPA, Pentapharm Ltd., Basel, Switzerland), MOC-D-Nle-Gly-Arg-pNA (Chromozym X, Boehringer Mannheim GmbH, Mannheim, Germany, Cat.No. 789763), MeSO2 -D-CHG-Gly-Arg-pNA (Pentapharm Ltd., Basel, Switzerland), MeSO2 -D-CHA-Gly-Arg-pNA (Pentapharm Ltd., Basel, Switzerland) and MeSO2 -D-CHA-Gly-Arg-AMC (Pentapharm Ltd., Basel, Switzerland).
Test Mixture Fluorogenic (Concentration in the Test)
0.51 mmol/l MeSO2 -D-CHA-Gly-Arg-AMC
0.08 μmol/l rFIXa (human)
Target sequence in this assay (P00740 227-461): as the sequence (P00740 227-461 limits assumed) above
Target sequence in this assay (P00740 131-226): as the sequence (P00740 131-226 partner limits assumed) above

[6] = target: thrombin (bovine) (Bos taurus, UniProt P00735); settings: thrombin 0.045 μmol/l, MeSO2-D-HHT-Gly-Arg-pNA 1.02 mmol/l, pH 7.4
Excerpt: Thrombin Test Mixture (Concentration in the Test)
as §1, §2
0.045 μmol/l thrombin (bovine)
as §3

[7] = target: FXIIa (human) (Homo sapiens, UniProt P00748); settings: FXIIa 0.0045 U/ml, MeSO2-D-HHT-Gly-Arg-pNA 1.02 mmol/l, pH 7.4
Chain of FXIIa (human) (P00748 373-615 limits assumed, other chains not shown): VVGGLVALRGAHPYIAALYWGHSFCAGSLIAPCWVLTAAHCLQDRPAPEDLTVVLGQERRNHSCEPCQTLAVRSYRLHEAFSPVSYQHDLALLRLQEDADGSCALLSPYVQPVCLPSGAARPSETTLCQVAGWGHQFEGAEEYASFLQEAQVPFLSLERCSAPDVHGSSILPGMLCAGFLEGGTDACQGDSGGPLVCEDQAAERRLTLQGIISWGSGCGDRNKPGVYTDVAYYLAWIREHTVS
Excerpt: FXIIa Test Mixture (Concentration in the Test)
as §1, §2
0.0045 U/ml FXIIa (human)
as §3

[8] = target: FXa (bovine) (Bos taurus, UniProt P00743); settings: FXa 0.088 μmol/l, MeSO2-D-HHT-Gly-Arg-pNA 1.02 mmol/l, pH 7.4
Chain of FXa (bovine) (P00743 234-492 limits assumed): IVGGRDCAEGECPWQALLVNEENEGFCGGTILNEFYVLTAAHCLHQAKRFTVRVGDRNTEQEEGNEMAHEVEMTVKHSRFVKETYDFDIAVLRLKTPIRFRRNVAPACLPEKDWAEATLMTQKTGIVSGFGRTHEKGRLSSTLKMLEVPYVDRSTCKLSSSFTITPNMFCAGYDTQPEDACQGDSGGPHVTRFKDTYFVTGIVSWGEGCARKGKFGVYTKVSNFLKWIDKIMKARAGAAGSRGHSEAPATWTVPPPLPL
Chain of FXa (bovine) (P00743 41-180 partner limits assumed): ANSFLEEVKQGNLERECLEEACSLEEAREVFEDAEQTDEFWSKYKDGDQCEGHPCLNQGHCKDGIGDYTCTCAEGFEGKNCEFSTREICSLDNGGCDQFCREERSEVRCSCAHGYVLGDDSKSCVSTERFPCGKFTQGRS
Excerpt: FXa Test Mixture (concentration in the Test)
as §1, §2
0.088 μmol/l FXa (bovine)
as §3

Chain of plasma kallikrein (human) (P03952 391-638 limits assumed): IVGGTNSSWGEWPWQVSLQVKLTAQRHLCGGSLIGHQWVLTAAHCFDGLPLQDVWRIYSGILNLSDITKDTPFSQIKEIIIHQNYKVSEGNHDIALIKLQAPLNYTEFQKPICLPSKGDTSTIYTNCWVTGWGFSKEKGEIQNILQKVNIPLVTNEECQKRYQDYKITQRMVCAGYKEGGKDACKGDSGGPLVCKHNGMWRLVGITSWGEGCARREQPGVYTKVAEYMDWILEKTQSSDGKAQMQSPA
Chain of plasma kallikrein (human) (P03952 20-390 partner limits assumed): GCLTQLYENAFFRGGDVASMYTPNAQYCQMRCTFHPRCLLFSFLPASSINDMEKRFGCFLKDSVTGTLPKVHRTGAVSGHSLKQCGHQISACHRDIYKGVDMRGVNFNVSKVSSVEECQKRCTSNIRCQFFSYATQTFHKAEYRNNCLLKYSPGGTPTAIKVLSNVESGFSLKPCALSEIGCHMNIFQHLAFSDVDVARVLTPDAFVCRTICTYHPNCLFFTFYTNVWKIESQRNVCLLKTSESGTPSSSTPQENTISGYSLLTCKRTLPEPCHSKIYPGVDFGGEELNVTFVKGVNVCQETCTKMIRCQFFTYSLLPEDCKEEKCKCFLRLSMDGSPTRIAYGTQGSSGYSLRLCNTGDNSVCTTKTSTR

Compound: CCO [Ethanol]
- activation of plasma kallikrein (in words) [1]: slight activation
- V/V0 ([2]; 8% alcohol): 1.08
- V/V0 ([2]; 16% alcohol): 0.845
- V/V0 ([2]; 25% alcohol): 0.657
- V/V0 ([2]; 33% alcohol): 0.469
- V/V0 ([2]; 41% alcohol): 0.353
- V/V0 ([2]; 50% alcohol): 0.258
- activation among plasma kallikrein, FXIIa, FXIa, FIXa, FXa and thrombin (in words) ([3]; 0-50% alcohol, MeSO2-D-HHT-Gly-Arg-pNA): only FIXa is activated
- V/V0 ([3]; 8% additive): 3.40
- V/V0 ([3]; 16% additive): 5.46
- V/V0 ([3]; 25% additive): 5.96
- V/V0 ([3]; 33% additive): 4.82
- V/V0 ([3]; 41% additive): 1.69
- V/V0 ([3]; 50% additive): 1.17
- V/V0 ([4]; 8% additive, MOC-D-Nle-Gly-Arg-pNA 0.82 mmol/l, 0.48 μmol/l rFIXa): 3.63
- V/V0 ([4]; 8% additive, MeSO2-D-CHA-Gly-Arg-pNA 1.02 mmol/l, 0.48 μmol/l rFIXa): 3.30
- V/V0 ([4]; 8% additive, MeSO2-D-CHG-Gly-Arg-pNA 1.02 mmol/l, […] rFIXa): 3.33
- V/V0 ([4]; 8% additive, MeSO2-D-HHT-Gly-Arg-pNA 1.02 mmol/l, 0.48 μmol/l rFIXa): 2.99
- V/V0 ([4]; 16% additive, MOC-D-Nle-Gly-Arg-pNA 0.82 mmol/l, 0.48 μmol/l rFIXa): 7.28
- V/V0 ([4]; 16% additive, MeSO2-D-CHA-Gly-Arg-pNA 1.02 mmol/l, 0.48 μmol/l rFIXa): 5.40
- V/V0 ([4]; 16% additive, MeSO2-D-CHG-Gly-Arg-pNA 1.02 mmol/l, […] rFIXa): 6.02
- V/V0 ([4]; 16% additive, MeSO2-D-HHT-Gly-Arg-pNA 1.02 mmol/l, 0.48 μmol/l rFIXa): 5.52
- V/V0 ([4]; 25% additive, MOC-D-Nle-Gly-Arg-pNA 0.82 mmol/l, 0.48 μmol/l rFIXa): 9.95
- V/V0 ([4]; 25% additive, MeSO2-D-CHA-Gly-Arg-pNA 1.02 mmol/l, 0.48 μmol/l rFIXa): 5.38
- V/V0 ([4]; 25% additive, MeSO2-D-CHG-Gly-Arg-pNA 1.02 mmol/l, […] rFIXa): 6.16
- V/V0 ([4]; 25% additive, MeSO2-D-HHT-Gly-Arg-pNA 1.02 mmol/l, 0.48 μmol/l rFIXa): 5.57
- V/V0 ([4]; 33% additive, MOC-D-Nle-Gly-Arg-pNA 0.82 mmol/l, 0.48 μmol/l rFIXa): 7.51
- V/V0 ([4]; 33% additive, MeSO2-D-CHA-Gly-Arg-pNA 1.02 mmol/l, 0.48 μmol/l rFIXa): 4.30
- V/V0 ([4]; 33% additive, MeSO2-D-CHG-Gly-Arg-pNA 1.02 mmol/l, […] rFIXa): 4.50
- V/V0 ([4]; 33% additive, MeSO2-D-HHT-Gly-Arg-pNA 1.02 mmol/l, 0.48 μmol/l rFIXa): 3.35
- V/V0 ([4]; 41% additive, MOC-D-Nle-Gly-Arg-pNA 0.82 mmol/l, 0.48 μmol/l rFIXa): 3.15
- V/V0 ([4]; 50% additive, MeSO2-D-CHA-Gly-Arg-pNA 1.02 mmol/l, 0.48 μmol/l rFIXa): 0.89
- V/V0 ([4]; 50% additive, MeSO2-D-CHG-Gly-Arg-pNA 1.02 mmol/l, […] rFIXa): 0.87
- V/V0 ([4]; 50% additive, MeSO2-D-HHT-Gly-Arg-pNA 1.02 mmol/l, 0.48 μmol/l rFIXa): 0.606
- V/V0 ([4]; 50% additive, MeSO2-D-HHT-Gly-Arg-pNA 1.02 mmol/l, 0.48 μmol/l rFIXa, listed as ethanol): 0.61 and 0.60
- stimulation of the activity of rFIXa ([4]; concentration range of 15-40%): 5-15 fold
- V/V0 ([5]; 8% additive): 2.09
- V/V0 ([5]; 16% additive): 2.50
- V/V0 ([5]; 33% additive): 1.01
- V/V0 ([5]; 41% additive): 0.70
- V/V0 ([5]; 50% additive): 0.58
- V/V0 ([6]; 8% alcohol): 0.846
- V/V0 ([6]; 16% alcohol): 0.685
- V/V0 ([6]; 25% alcohol): 0.507
- V/V0 ([6]; 33% alcohol): 0.343
- V/V0 ([6]; 41% alcohol): 0.184
- V/V0 ([6]; 50% alcohol): 0.087
- V/V0 ([7]; 8% alcohol): 0.904
- V/V0 ([7]; 16% alcohol): 0.579
- V/V0 ([7]; 25% alcohol): 0.187
- V/V0 ([7]; 33% alcohol): 0.051
- V/V0 ([7]; 41% alcohol): 0.009
- V/V0 ([7]; 50% alcohol): 0
- V/V0 ([8]; 8% alcohol): 0.899
- V/V0 ([8]; 16% alcohol): 0.752
- V/V0 ([8]; 25% alcohol): 0.510
- V/V0 ([8]; 41% alcohol): 0.203
- V/V0 ([8]; 50% alcohol): 0.086
